Where “and” joins values, the source holds several entries; their conditions need not be identical. Equal values may be shown once. Read-outs that look alike come from different tables or passages of the source.
Biological target: T1, AR-LBD (Homo sapiens, UniProt P10275)
T1 construct: The pET28a-AR-LBD (622-919) construct; made in house
T1 sequence (P10275 622-919): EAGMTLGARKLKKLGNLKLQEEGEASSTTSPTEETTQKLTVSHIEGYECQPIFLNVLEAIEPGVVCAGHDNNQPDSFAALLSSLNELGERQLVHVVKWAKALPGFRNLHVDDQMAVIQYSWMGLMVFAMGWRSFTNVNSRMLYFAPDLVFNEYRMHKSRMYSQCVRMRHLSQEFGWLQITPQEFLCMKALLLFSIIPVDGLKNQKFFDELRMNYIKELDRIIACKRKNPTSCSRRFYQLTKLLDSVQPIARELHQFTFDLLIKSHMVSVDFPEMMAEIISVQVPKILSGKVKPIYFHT
Assay: H^3-DHT radioligand binding assay
Procedure: H^3-DHT Radioligand Binding Assay: The His6-AR-LBD H^3-DHT competition binding assay has been described previously (Fancher et al., Assay Drug Dev Technol. 2016, 14:453-477; Fancher et al., Assay Drug Dev Technol. 2019, 17:364-386). Briefly, 96-well Cu^2+-coated plates (ThermoFisher) were incubated overnight at 4° C. with 5 µg per well His6-AR-LBD in 100 μL of PBS. Unbound His6-AR-LBD was aspirated, the plate was washed 3× with 100 μL of 0.05% Tween 20 in PBS and then blocked with 100 μL of 1 mg/mL BSA in PBS for 1 h. After three more washes with 100 μL of PBS and 0.05% Tween 20, 40 μL of PBS was added to wells followed by […] each of diluted compounds and 100 nM H^3-DHT transferred into the wells using a Matrix pipettor. Compounds were tested between 0.098 to 50 μM in the presence of 10 nM H^3-DHT. After 1 h, compounds and H^3-DHT were aspirated and washed 3× with 0.05% Tween 20 in PBS; 100 μL of Microscint™-20 micro-scintillation cocktail buffer (Perkin Elmer, Waltham, MA) was added to each well, plates were sealed with adhesive plastic covers; and the counts per minute (CPMs) were captured in a TopCount NXT microtiter plate reader (Perkin Elmer, Waltham, MA).

[1] = 10 nM H^3-DHT, read-out: Inhibition H^3-DHT ligand binding to AR-LBD IC50
[2] = read-out: IC50 in H^3-DHT binding assay (potency range in words)

Row | Structure (SMILES) | IC50 [1] | IC50 [2] [µM] | IC50 (10 nM H^3-DHT, listed as 1, read-out: Inhibition H^3-DHT ligand binding to AR-LBD IC50) [µM]
1 | CC(=O)NCCC(=O)NCc1ccc2[nH]c(-c3ccccc3F)c(C)c2c1 [Compound S3-13] | > 100 µM | – | –
2 | Cc1c(-c2ccccc2F)[nH]c2ccc(CNC(=O)CCc3cn[nH]c3)cc12 [Compound S3-11] | > 100 µM | – | –
3 | Cc1cccc2c(-c3ccc(O)c(F)c3)c[nH]c12 [Compound S3-17] | 56 µM | 10 to 100 | –
4 | Cc1c(-c2ccccc2F)[nH]c2ccc(CNC(=O)CCc3cnccn3)cc12 [Compound S3-12] | > 100 µM | – | –
5 | CNC(=O)c1ccc(-c2c[nH]c3c(C)cccc23)cc1 [Compound S3-21] | > 100 µM | – | –
6 | Cc1ccccc1-c1cc(O)c2c(c1)CN(c1nccs1)CCO2 [Compound S1-3] | > 100 µM | – | –
7 | COc1cc(-c2ccc(C)s2)cc2c1OCCN(c1nc(C(N)=O)cs1)C2 [Compound S1-5] | > 100 µM | – | –
8 | Cc1c(-c2ccc(F)cc2)[nH]c2ccc(CNC(=O)c3ccc(CO)o3)cc12 [Compound S3-15] | > 100 µM | – | –

Results, then the compound that gave them:

Row | IC50 [1] | IC50 [2] [µM] | IC50 (10 nM H^3-DHT, listed as 1, read-out: Inhibition H^3-DHT ligand binding to AR-LBD IC50) [µM] | Structure (SMILES)
9 | > 100 µM | – | – | Cc1nc(N)cc(N2CCOc3c(O)cc(-c4ccccc4C)cc3C2)n1 [Compound S1-2]
10 | 63 µM | 10 to 100 | – | Cc1c(-c2ccccc2F)[nH]c2ccc(CNC(=O)c3ccc(CO)o3)cc12 [Compound S3-14]
11 | ~44 µM and ~27 µM | – | 26.7 | Cc1ccccc1-c1cc(O)c2c(c1)CN(c1nc(C(N)=O)cs1)CCO2 [Compound S1-1]
12 | > 100 µM | – | – | Cc1nsc(NC(=O)N2CCC(Sc3ccccc3C)CC2)n1 [Compound S2-6]

Reference: patent US20260083751A1, “ALLOSTERIC MODULATORS OF ANDROGEN RECEPTOR COACTIVATOR RECRUITMENT FOR CRPC THERAPY” (University of Pittsburgh – Of the Commonwealth System of …, priority 2022, published 2026)
